Measurements reported in PMC11681865, “Oligomerization of protein arginine methyltransferase 1 and its functional impact on substrate arginine methylation” (The Journal of Biological Chemistry, 2024).
“Also recorded” adds a separate entry of the source. Each block holds one compound with its values, some of them ahead of it.

Key:
PRMT1 [1] = biological target: T1, PRMT1 (Homo sapiens, UniProt Q99873); experiment: Stopped-flow fluorescence dissociation of H4FL from PRMT1; assay type: binding; conditions: for koff: 1:25 dilution, pH 8.0, ex 498 / em 524, at least three shots averaged, single exponential
T1 construct: human PRMT1 protein (amino acid residue 11–353); His6; made in house
T1 sequence (Q99873 11-353 isoform Q99873-3): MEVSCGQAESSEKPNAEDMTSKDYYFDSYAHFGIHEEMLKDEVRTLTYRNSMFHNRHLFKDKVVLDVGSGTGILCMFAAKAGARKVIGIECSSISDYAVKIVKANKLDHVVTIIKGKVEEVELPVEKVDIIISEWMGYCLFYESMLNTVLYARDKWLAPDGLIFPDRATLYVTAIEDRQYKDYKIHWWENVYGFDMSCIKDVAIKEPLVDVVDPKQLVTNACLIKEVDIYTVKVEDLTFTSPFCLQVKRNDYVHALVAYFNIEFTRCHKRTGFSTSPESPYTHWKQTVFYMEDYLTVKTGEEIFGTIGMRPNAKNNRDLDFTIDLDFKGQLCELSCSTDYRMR
Text: We next utilized the stopped-flow technique to measure the dissociation rates of peptide substrate from PRMT1 at different PRMT1 concentrations. We used a rapid dilution experiment with stopped flow fluorescence to measure the dissociation rate of H4 peptide from PRMT1. […] We reasoned that the changes of fluorescence intensity can be used to measure dissociation rate of H4 substrate. In the experiment, the H4FL was premixed with PRMT1 and loaded into the sample chamber of the stopped flow equipment. The mixture was rapidly mixed with an access buffer which initiated the dissociation of H4FL from PRMT1 on the millisecond scale. […] The averaged data curves were fitted to the single exponential equation to yield dissociation rate constant koff. The koff was 42.27 s^−1 at 0.5 μM of PRMT1, the koff was 22.29 s^−1at 1.5 μM of PRMT1, and the koff was 17.65 s^−1 at 5 μM of PRMT1 (Fig. 9D).
Figure 9 Oligomerization helps PRMT1 retain its substrate. The experiment was carried out by the SX20 stopped-flow spectrometers with (A) 0.5 μM, (B) 1.5 μM, and (C) 5 μM of PRMT1. The PRMT1 was premixed with 0.8 μM H4FL peptide. The mixture was diluted with the reaction buffer for a 1:25 dilution when the reaction was run. D, data summary of koff. TEXT PRINTED IN THE PICTURE: (D) no label printed: koff: 42.27 s^-1 (Concentration of PRMT1: 0.5 μM); koff: 22.29 s^-1 (Concentration of PRMT1: 1.5 μM); koff: 17.65 s^-1 (Concentration of PRMT1: 5 μM)
The trapping experiment to measure the dissociation rate of PRMT1 was carried out using the SX20 stopped-flow spectrometers (Applied Photophysics). The setting for excitation was 498 and emission was 524. A constant concentration of 0.8 μM of H4FL peptide (Peptide Sequence: Ac-[…]pr(FL)[…], in which FL stands for fluorescein) was pre-mix with 0.5 μM, 1.5 μM, and 5.0 μM of PRMT1. The mixture was loaded on the 100 μl drive syringe. Another 2.5 ml drive syringe was loaded with reaction buffer (50 mM Hepes pH 8.0, 10 mM NaCl, 0.5 mM EDTA, and 0.5 mM DTT) to create the 1:25 dilution factor. At least three shots were averaged for each reaction and fitted to the single exponential function. F is the fluorescence intensity, t is time, A is the amplitude of fluorescence, k is the dissociation rate constant, and C is the final value of fluorescence.(2) F=Aexp(−kt)+C

PRMT1-WT [2] = biological target: T2, PRMT1-WT (Homo sapiens, UniProt Q99873); experiment: Radiometric P81 filter-binding assay, PRMT1-WT concentration dependence; assay type: biochemical; conditions: 50 μM peptide, 2 μM [3H]-SAM and 48 μM SAM, 30 min, room temperature, pH 8.0
T2 construct: His-MBP (N, cleaved yes); made in house; host or cells: Escherichia coli BL21 (DE3) RIPL
T2 sequence (Q99873 11-353 isoform Q99873-3): as above
Text: We used the phosphocellulose P81 filter paper–binding assay to measure the catalytic activity of PRMT1 at different concentrations on individual peptides. Each reaction mixture was composed of PRMT1-WT at varied concentrations, at fixed concentrations of SAM and peptide. The reaction mixture was quenched with isopropanol, transferred to the P81 filter paper, and washed with sodium bicarbonate buffer (pH 9). […] The measured count-per-minute (CPM) values correlated directly with the amounts of methylated peptide products. In a typical enzymatic catalysis, the product should be formed linearly as a function of enzyme concentration.
Various concentrations of PRMT1-WT were incubated with radioactive 2 μM [3H]-SAM and 48 μM SAM and 50 μM of indicated peptides for 30 min. The reaction was quenched with 100% isopropanol.
The reaction buffer consisted of 50 mM Hepes pH 8.0, 10 mM NaCl, 0.5 mM EDTA, and 0.5 mM DTT. The reaction was incubated at room temperature for 30 min after being initiated with ^3H-SAM SAM. An equal amount of 100% isopropanol to the total reaction volume was used to quench the reaction. The reaction liquid was transferred onto the phosphocellulose P81 filter paper (1.1 cm × 2 cm, Protein Chemistry & Metabolism Unit at St Vincent's Institute of Medical Research). The P81 filter papers containing the samples were left at room temperature for 30 min to airdry. […]

PRMT1 [3] = biological target: T1, PRMT1; experiment: Dynamic light scattering of PRMT1 oligomers; assay type: physicochemical; conditions: pH 8, 25 °C; for disruption of PRMT1 oligomers by denaturant: 6 M guanidine hydrochloride or 5 M guanidine thiocyanate
Text: Dynamic light scattering (DLS) uses a laser to measure the particle size distribution ([26]). The DLS can give information regarding the heterogeneity of protein in a sample ([27]). In the past, DLS was used to study microbial and viral structure ([28]). Nowadays, DLS is a popular method for studying nanoparticles, liposomes, and exosomes ([29], [30], [31], [32]). Researchers have also used DLS to study the protein folding of bovine serum albumin ([33]). Therefore, we envisage that the DLS can be utilized to analyze the size changes of PRMT1 oligomeric compositions in an aqueous solution. We expect to see an increase in size with increasing protein concentrations. The prepared PRMT1 protein at varied concentrations was allowed to incubate in the aqueous buffer for equilibrium on ice for 10 min. The protein solution was filtered with 0.2-micron filter to remove any big interfering particles. The protein size was analyzed using a Malvern Zetasizer instrument. We took an average of three runs with about 25 scans each time to evaluate the data. […] Guanidine hydrochloride is a popular protein denaturant ([34]). […] As a negative control, we incubated PRMT1 in the presence of 6 M guanidine hydrochloride to disrupt oligomer formation. […] A literature reported that guanidine thiocyanate is a stronger denaturant than guanidine hydrochloride ([35]).
Figure 2 Oligomerization of PRMT1 detection by dynamic light scattering. Various concentrations of PRMT1 were incubated on ice for 10 min, then filtered by 0.2-micron syringe filter and collected data from the DLS. The top line with black circle indicates PRMT1 without denaturant. The open triangle and hexagon lines indicated PRMT1 oligomeric structure disrupted by 6 M guanidine hydrochloride and 5 M guanidine thiocyanate, respectively.
Indicated concentrations of PRMT1 were incubated for 10 min on ice with buffer (50 mM Hepes pH 8, 10 mM NaCl, 0.5 mM EDTA, 0.5 mM DTT) and filtered through the 0.22 μm syringe filter. For the experiment to disrupt the oligomer formation, 6 M of guanidine hydrochloride or 5 M of guanidine thiocyanate was added to the reaction. The samples were injected into the 1 ml disposable cuvette and measured by Zetasizer Nano ZS (Malvern Instruments) at 25 °C. Three measurements of 25 scans each were collected to average. The data was analyzed by the Malvern Zetasizer software v7.10.

PRMT1-WT [4] = biological target: T2, PRMT1-WT; experiment: Steady-state kinetics, radiometric filter-binding assay, PRMT1-WT; assay type: biochemical
Text: To gain further insights into the effect of oligomerization on the PRMT1 activity, we measured the steady-state kinetic parameters of different peptide substrates under PRMT1 catalysis using the radiometric assay. […] A constant concentration of PRMT1-WT was mixed with various concentrations of peptide and a constant concentration of radioactive SAM. After quenching the reaction, the reaction mixture was loaded onto the P81 filter paper that was washed, air-dried, and soaked in scintillation cocktail for scintillation counting. The rates of methylation as a function of the peptide concentration were plotted in Figure 8A and fit with the Hill equation to obtain catalytic parameters kcat and K0.5 (Fig. 8B).
Figure 8 Steady state kinetic characterization of PRMT1 catalysis in oligomeric states. Radioactive kinetic parameters were measured using filter-binding assay. […] The reaction time was 15 min at 30 °C and quenched with 100% isopropanol. For the reaction with PRMT1-E153Q, 0.05 μM PRMT1-E153Q was incubated on ice with PRMT1 for 20 min equilibration before adding SAM and peptide. A, kinetic parameters of oligomeric states in graphical form. B, representation of the kinetic parameters in kcat, K0.5, and kcat/K0.5.
Each reaction sample was consisted of 0.05 μM PRMT1, 15 μM ^14C-SAM, and various concentrations of peptide. […]

[5] = biological target: Human PRMT1 (11-353), His-MBP tag removed (human)

koff (PRMT1 [1]; 0.5 μM PRMT1, 0.8 μM H4FL): 42.27 s⁻¹ | koff (PRMT1 [1]; 1.5 μM PRMT1, 0.8 μM H4FL): 22.29 s⁻¹ | koff (PRMT1 [1]; 5 μM PRMT1, 0.8 μM H4FL): 17.65 s⁻¹
Compound: Ac-SGRGKGGKGDpr(FL)GKGGAKRHRK [H4FL, fluorescently labeled H4 peptide]
koff vs PRMT1 concentration / oligomeric state (PRMT1 [1]; 0.5, 1.5 and 5 μM PRMT1): the koff decreased as PRMT1 concentration increased; also recorded: smaller at higher oligomeric states

highest Z-average of PRMT1 in presence of denaturant (PRMT1 [3]; 6 M guanidine hydrochloride, average of three runs of 25 scans): 8.43 nm
Compound: Cl.N=C(N)N [guanidine hydrochloride]
disruption of PRMT1 oligomers by denaturant (PRMT1 [3]): substantially smaller than those values without guanidine hydrochloride

Z-average of PRMT1 in presence of denaturant (PRMT1 [3]; 5 M guanidine thiocyanate, average of three runs of 25 scans): 1.27 nm
Compound: N#CS.N=C(N)N [guanidine thiocyanate]
disruption of PRMT1 oligomers by denaturant (PRMT1 [3]): better at denaturing PRMT1 oligomers than guanine hydrochloride

dimethylated R4me2 (MALDI-MS, percent relative to R4 peptide), 0.5 μM PRMT1-WT with 0 to 2 μM PRMT1-E153Q [5]: 5.85% | monomethylated product R4me1 (MALDI-MS, percent relative to R4 peptide), 0.5 μM PRMT1-WT with 0 to 2 μM PRMT1-E153Q [5]: 20.2%
Compound: PRMT1-E153Q, catalytically inactive mutant (enzyme)

Continued, compound first:

Compound: Ac-SGRmeGKGGKGLGKGGAKRHRK [Ac-H4(1–20)R3me]
PRMT1 enzymatic activity (CPM) vs PRMT1 concentration (PRMT1-WT [2]): increase as higher-order oligomeric structures were formed

Compound: Ac-SGRGKGGKGLGKGGAK [Ac-H4(1–16)]
K0.5 / binding comparison of Ac-H4(1–16) and longer H4 peptide (PRMT1-WT [4]): greater than Ac-H4(1–22); also recorded: weaker PRMT1 binding | kcat, fold lower than Ac-H4(1–22) (PRMT1-WT [4]; Ac-H4(1–16) vs Ac-H4(1–22)): 1.3 fold
